Test results as given in the supplement of paper PMC4862054.
“And” between values parts separate entries of the source, which are not always exact repeats. Identical values can stand only once.

Legend:
Details in all cases: incubation time: 72 h
[1] = test system: CAL-51; experiment: normalised viability (% of control), CellTiter-Blue; higher = more viable cells (about 100 = DMSO control)
Experimental: (§1)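 DSRT, CellTiter-Blue viability, 72 h incubation. Signal is normalised to DMSO and benzethonium chloride controls. Value is the normalised response at dose 7.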

[2] = test system: CAL-148; experiment: as above
Experimental: as §1

[3] = test system: HDQ-P1; experiment: as above
Experimental: as §1

[4] = test system: DU-4475; experiment: as above
Experimental: as §1

[5] = test system: MDA-MB-453; experiment: as above
Experimental: as §1

[6] = test system: CAL-85-1; experiment: as above
Experimental: as §1

[7] = test system: CAL-51; experiment: drug sensitivity score (DSS), CellTox Green (DSS (AUC-based score)); higher = stronger drug effect (viability inhibition or cytotoxicity); extreme values may be limits of the assay
How it was run: (§2)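 The drug sensitivity score was computed from the area under the fitted dose-response curve. Breast cancer cell lines in 20 µl suspension went into 384-well plates holding compound at 5 concentrations (10-fold steps over a 10,000-fold, compound-specific range) for 72 h of incubation. CellTox Green fluorescence (485/520 nm) was read before CellTiter-Glo luminescence, the latter after 10 min at room temperature, and each plate was normalised to 0.1 % DMSO and a positive kill control.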

[8] = test system: CAL-120; experiment: as above
How it was run: as §2

[9] = test system: MDA-MB-436; experiment: as above
How it was run: as §2

[10] = test system: BT-549; experiment: as above
How it was run: as §2

[11] = test system: MCF-10A; experiment: as above
How it was run: as §2

[12] = test system: HDQ-P1; experiment: as above
How it was run: as §2

[13] = test system: Hs578T; experiment: as above
How it was run: as §2

[14] = test system: BT-474; experiment: as above
How it was run: as §2

[15] = test system: HCC1143; experiment: as above
How it was run: as §2

[16] = test system: HCC1599; experiment: as above
How it was run: as §2

[17] = test system: MFM-223; experiment: as above
How it was run: as §2

[18] = test system: HCC1937; experiment: as above
How it was run: as §2

[19] = test system: MDA-MB-468; experiment: as above
How it was run: as §2

[20] = test system: MDA-MB-453; experiment: as above
How it was run: as §2

[21] = test system: MDA-MB-231; experiment: as above
How it was run: as §2

[22] = test system: CAL-85-1; experiment: as above
How it was run: as §2

[23] = test system: Hs578T; experiment: drug sensitivity score (DSS), CellTiter-Blue viability (DSS (AUC-based score)); higher = stronger viability inhibition; extreme values may be limits of the assay
Experimental: (§3)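 DSRT with the CellTiter-Blue (resazurin reduction) viability readout, fluorescence 560/590 nm, 72 h incubation. Plates were normalised to DMSO and benzethonium chloride controls. DSS is computed from the area under the fitted dose-response curve (5 or 9 concentrations).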

[24] = test system: HCC1143; experiment: as above
Experimental: as §3

SMILES	normalised viability ([1]; 1000 nM)	normalised viability ([2]; 1000 nM)	normalised viability ([3]; 1000 nM)	normalised viability ([4]; 1000 nM)	normalised viability ([5]; 1000 nM)	normalised viability ([6]; 1000 nM)	drug sensitivity score [7]	drug sensitivity score [8]	drug sensitivity score [9]	drug sensitivity score [10]	drug sensitivity score [11]	drug sensitivity score [12]	drug sensitivity score [13]	drug sensitivity score [14]	drug sensitivity score [15]	drug sensitivity score [16]	drug sensitivity score [17]	drug sensitivity score [18]	drug sensitivity score [19]	drug sensitivity score [20]	drug sensitivity score [21]	drug sensitivity score [22]	drug sensitivity score [23]	drug sensitivity score [24]	normalised viability ([1]; 100 nM)	normalised viability ([2]; 100 nM)	normalised viability ([3]; 100 nM)	normalised viability ([4]; 100 nM)	normalised viability ([5]; 100 nM)	normalised viability ([6]; 100 nM)	normalised viability ([1]; 10000 nM) [%]	normalised viability ([2]; 10000 nM) [%]	normalised viability ([3]; 10000 nM) [%]	normalised viability ([4]; 10000 nM) [%]	normalised viability ([5]; 10000 nM) [%]	normalised viability ([6]; 10000 nM) [%]
Cn1cncc1[C@@](N)(c1ccc(Cl)cc1)c1ccc2c(c1)c(-c1cccc(Cl)c1)cc(=O)n2C [Tipifarnib]	59.9%	42.9%	66.6%	40.6%	49.1%	62.8%	10.3	0	0	0	0	0	0	0	0	0	0	0	0	0	0	0.98	5.75	14.7	–	–	–	–	–	–	–	–	–	–	–	–
CC[C@]1(O)C[C@H]2CN(CCc3c([nH]c4ccccc34)[C@@](C(=O)OC)(c3cc4c(cc3OC)N(C=O)[C@H]3[C@@](O)(C(=O)OC)[C@H](OC(C)=O)[C@]5(CC)C=CCN6CC[C@]43[C@@H]65)C2)C1 [Vincristine]	10.3%	26%	43.1%	8.18%	36.4%	34.7%	14.1	1.68	0	9.25	14.2	0	8.32	6.14	0	2.79	12.5	0	22.1	0	15.7	14.4	26.5 and 37.7	22.6 and 27.4	27%	16%	36.1%	34.1%	34.3%	43.9%	–	–	–	–	–	–
COc1ccccc1S(=O)(=O)Nc1ccc2c(c1)CN(C)C(=O)N2 [PFI-1]	–	–	–	–	–	–	0	0	0	0	0	0	0	0	0	0	0	0	0	0	0	0.65	–	–	–	–	–	–	–	–	–	–	–	–	–	–
CC(C)(C#N)c1cc(Cn2cncn2)cc(C(C)(C)C#N)c1 [Anastrozole]	93.9%	90.4%	84.2%	91.3%	105%	90.8%	0	0	0	0	0	0	–	0	–	0	0	0	0	0.209	0	0	0	0	–	–	–	–	–	–	–	–	–	–	–	–
Cn1c(=O)n(-c2ccc(C(C)(C)C#N)cc2)c2c3cc(-c4cnc5ccccc5c4)ccc3ncc21 [NVP-BEZ235]	–	–	–	–	–	–	–	–	–	–	–	–	–	–	–	–	–	–	–	–	–	–	18.4	15.4	22.3%	16.1%	38.3%	37.2%	16.8%	31.4%	–	–	–	–	–	–
COc1ccc(-c2ccc3c(N4CCOC[C@@H]4C)nc(N4CCOC[C@@H]4C)nc3n2)cc1CO [AZD8055]	10.8%	5.6%	27.2%	15.2%	14.4%	23.8%	7.39	0	0	0	0	0	0	2.99	8.37	0	0	0	2.01	0	0	0.628	23.6	18.1	–	–	–	–	–	–	–	–	–	–	–	–
CNNCc1ccc(C(=O)NC(C)C)cc1 [Procarbazine]	100%	87.9%	95.7%	105%	113%	89.2%	0	0	0	0	0	0	0	0	0	0	0	1.67	3.72	–	0	1.2	0	0	–	–	–	–	–	–	–	–	–	–	–	–
Cc1ccc(NC(=O)c2ccc(CN3CCN(C)CC3)cc2)cc1Nc1nccc(-c2cccnc2)n1 [Imatinib]	106% and 102%	82.7% and 100%	106% and 122%	115% and 108%	110% and 92.5%	92.6% and 82.5%	0	0	0	0	0	0	0.401	0	0	0	0	0	0	6.17	0	0	0	0	–	–	–	–	–	–	–	–	–	–	–	–
Nc1ncnc2c1c(COc1cccc(Cl)c1)nn2C1CCOCC1	–	–	–	–	–	–	0	0	0	0	0	0	0.27	0	0	0	0	0	0	0	0	0	–	–	–	–	–	–	–	–	–	–	–	–	–	–
Cc1cc2c(C(C)C)c(O)c(O)c(C=O)c2c(O)c1-c1c(C)cc2c(C(C)C)c(O)c(O)c(C=O)c2c1O [Gossypol]	–	–	–	–	–	–	–	–	–	–	–	–	–	–	–	–	–	–	–	–	–	–	–	–	–	–	–	–	–	–	60.5	70.7	52.5	2.82	18.4	45.8
CC(C)c1c(C(=O)Nc2ccccc2)c(-c2ccccc2)c(-c2ccc(F)cc2)n1CC[C@@H](O)C[C@@H](O)CC(=O)O [Atorvastatin]	–	–	–	–	–	–	13.9	1.49	0	0	8.07	0	4.71	0	0	0	0	0	0	0.0639	13.1	0	–	–	–	–	–	–	–	–	–	–	–	–	–	–
CO[C@H]1C[C@@H]2CC[C@@H](C)[C@@](O)(O2)C(=O)C(=O)N2CCCC[C@H]2C(=O)O[C@H]([C@H](C)C[C@@H]2CC[C@@H](OCCO)[C@H](OC)C2)CC(=O)[C@H](C)/C=C(\C)[C@@H](O)[C@@H](OC)C(=O)[C@H](C)C[C@H](C)/C=C/C=C/C=C/1C [Everolimus]	–	–	–	–	–	–	0	0	0	8.1	0	0	0	0	0	0	5.95	0	0	0	0	0	–	–	36.9% and 38%	42% and 40.4%	72.6% and 57.6%	49.9% and 56%	29.1% and 22.3%	61.3% and 49.3%	–	–	–	–	–	–
CN(C)C[C@@H]1CCn2cc(c3ccccc32)C2=C(C(=O)NC2=O)c2cn(c3ccccc23)CCO1 [Ruboxistaurin]	76.8%	101%	67.1%	73.9%	102%	122%	9.21	0.954	5.62	2.34	0	2.84	–	17.2	0	0	0	1.71	6.81	4.68	7.98	7.2	1.19	0	–	–	–	–	–	–	–	–	–	–	–	–
Cn1c(=O)n(-c2ccc(C(C)(C)C#N)cc2)c2c3cc(-c4cnc5ccccc5c4)ccc3ncc21 [Dactolisib]	–	–	–	–	–	–	0	0	0	0	0	0	0	0	0	0	2.01	7.09	0	0	0	2.63	–	–	–	–	–	–	–	–	–	–	–	–	–	–
NS(=O)(=O)OC[C@@H]1C[C@@H](n2ccc3c(N[C@H]4CCc5ccccc54)ncnc32)C[C@@H]1O [Pevonedistat]	–	–	–	–	–	–	25.3	0	6.93	0	0	0	0.549	0	0	0.787	0	0	7.99	0	0	0	–	–	–	–	–	–	–	–	–	–	–	–	–	–
Nc1nc(OCc2cc(Br)cs2)c2[nH]cnc2n1 [Lomeguatrib]	–	–	–	–	–	–	0	0	0	0	0	0	0	0	0	0	0	1.11	0	0	0	0	–	–	–	–	–	–	–	–	–	–	–	–	–	–
